Tests used:
aldosterone receptors [1] = biological target: T1, aldosterone receptors (Homo sapiens, UniProt P08235); experiment: Single dose study: antialdosterone activity, urinary sodium and potassium after fludrocortisone; format: in vivo, humans; settings: 50 mg dose
T1 construct: endogenous in cells; host or cells: healthy male human subjects (in vivo)
T1 sequence (P08235 1-984): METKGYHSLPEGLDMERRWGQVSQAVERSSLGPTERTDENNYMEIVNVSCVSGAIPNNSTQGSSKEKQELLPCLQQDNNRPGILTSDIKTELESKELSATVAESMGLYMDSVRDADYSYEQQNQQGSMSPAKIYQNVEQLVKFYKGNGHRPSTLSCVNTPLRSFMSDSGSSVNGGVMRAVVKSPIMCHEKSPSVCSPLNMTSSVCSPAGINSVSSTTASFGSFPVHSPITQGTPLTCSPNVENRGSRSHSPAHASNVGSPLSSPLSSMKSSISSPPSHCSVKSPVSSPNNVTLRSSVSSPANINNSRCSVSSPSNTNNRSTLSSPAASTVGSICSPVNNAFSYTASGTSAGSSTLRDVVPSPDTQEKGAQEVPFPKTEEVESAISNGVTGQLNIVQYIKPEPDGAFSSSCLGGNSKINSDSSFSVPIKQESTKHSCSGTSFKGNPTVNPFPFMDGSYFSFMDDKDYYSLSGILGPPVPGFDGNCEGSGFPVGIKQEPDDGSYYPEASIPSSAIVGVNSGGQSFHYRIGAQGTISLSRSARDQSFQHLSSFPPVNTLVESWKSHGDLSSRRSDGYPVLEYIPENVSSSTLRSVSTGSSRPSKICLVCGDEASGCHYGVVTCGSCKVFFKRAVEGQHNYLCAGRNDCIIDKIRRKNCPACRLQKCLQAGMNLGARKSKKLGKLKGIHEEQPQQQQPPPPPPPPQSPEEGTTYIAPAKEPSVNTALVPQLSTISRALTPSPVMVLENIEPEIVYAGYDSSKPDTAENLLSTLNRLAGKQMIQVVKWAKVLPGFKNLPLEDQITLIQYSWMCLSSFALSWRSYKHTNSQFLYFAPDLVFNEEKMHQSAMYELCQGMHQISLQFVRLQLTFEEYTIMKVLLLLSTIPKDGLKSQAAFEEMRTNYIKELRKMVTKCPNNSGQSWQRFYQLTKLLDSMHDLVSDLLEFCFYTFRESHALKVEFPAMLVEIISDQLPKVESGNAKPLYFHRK
Procedure: Antialdosterone activity was determined based on urine levels of sodium and potassium following repeated administration of fludrocortisone. Safety was determined on the basis of laboratory tests, vital signs, and the occurrence and types of adverse events.
(§1) The subjects, who underwent a ten hour food fast prior to administration of the dose, received a single oral dose of one of the study medications together with about 180 mL of water at 0800 hours. […] Each dose of fludrocortisone was administered with 150 mL of water except for the 1.0 mg dose which was administered with 200 mL of water.
(§2) The plasma samples collected from subjects dosed with eplerenone were assayed for concentrations of eplerenone and the open lactone ring form of eplerenone. […] A subset of plasma samples was also assayed for testosterone levels. The urine collected was analyzed to determine concentrations and amounts of eplerenone and the open lactone ring form of eplerenone, the amount of sodium and potassium excreted, and the urinary log10 (sodium/potassium) ratio.

blood pressure = experiment: Treatment of hypertension study: blood pressure; format: in vivo, humans; settings: 50 mg BID; eight weeks
Procedure: (§3) The safety and efficacy of a range of doses of eplerenone in the treatment of hypertension relative to placebo were evaluated in a multi-center, randomized, double-blind, placebo-lead-in, parallel group study. […] The primary efficacy variable was the change in cuff diastolic blood pressure (ADBP; sitting) measured at trough plasma levels after eight weeks of double blind treatment. The secondary variables measured were the change in trough cuff systolic blood pressure (ΔSBP; sitting), change in 24 hour mean diastolic blood pressure (ΔDBP), and change in 24 hour mean systolic blood pressure (ΔSBP). The primary and secondary efficacy variables were analyzed to compare BID versus QD dosing regimens for each eplerenone dose group, and both eplerenone and spironolactone versus placebo. Changes in plasma renin and serum aldosterone after eight weeks of dosing were also analyzed as secondary measures of efficacy.
The specific pharmaceutical compositions of each eplerenone capsule are reported in Examples 5, 6, 7 and 8. The placebo was a conventional capsule containing lactose.

aldosterone receptors [2] = biological target: T1, aldosterone receptors; experiment: Multiple dose study: antialdosterone activity, urinary log10 (sodium/potassium); format: in vivo, humans; settings: multiple dose administration
Procedure: Multiple oral dose tolerability and the pharmacokinetics of several dosages of eplerenone were evaluated in a double-blind, randomized, placebo-controlled, rising oral dose, sequential panel study of 40 healthy male subjects (five groups of eight subjects). The study medication was administered in three sequential dose panels, with each panel including eplerenone, spironolactone and placebo. […] The 100 mg and 200 mg dose capsules corresponded to those described in Examples 7 and 8, respectively. […] Antialdosterone activity was determined following a fludrocortisone challenge on Days 12-13.

renin and aldosterone = experiment: Treatment of hypertension study: plasma renin and serum aldosterone; format: in vivo, humans
Procedure: as §3, with “study. […] Four hundred and seventeen patients were randomized to one of eight treatments: (i) placebo BID; […] (iv) eplerenone 400 mg QD; (v) eplerenone 25 mg BID;” for “study.”, “The primary and secondary efficacy variables were analyzed to compare BID versus QD dosing regimens for each eplerenone dose group, and both eplerenone and spironolactone versus placebo.” left out

[3] = Single dose study: plasma pharmacokinetics of eplerenone, open lactone ring form, spironolactone
Procedure: The pharmacokinetics, safety and antialdosterone activity of single 10, 50, 100, 300 and 1000 mg oral doses of eplerenone were evaluated in a single-center, randomized, double-blind, placebo-controlled study.
The study employed seven parallel dose groups of eight healthy male humans.
The eplerenone capsules administered corresponded to the capsules (or combinations of the capsules) disclosed in Examples 4, 5, 7 and 8 above. The placebo was a conventional capsule containing lactose. […] The fludrocortisone used in the study consisted of commercially available fludrocortisone tablets (Florinef®, Squibb BV).
as §1, §2

Compound: CC(=O)S[C@@H]1CC2=CC(=O)CC[C@]2(C)[C@H]2CC[C@@]3(C)[C@@H](CC[C@@]34CCC(=O)O4)[C@H]12 [spironolactone, Spironolactone, reference compound]
- Urinary Potassium Excretion (aldosterone receptors [1]; 0 to 2 hours): 7.5 mmol
- Urinary Sodium Excretion (aldosterone receptors [1]; 0 to 2 hours): 4.1 mmol
- Urinary Potassium Excretion (aldosterone receptors [1]; 2 to 4 hours): 11.8 mmol
- Urinary Sodium Excretion (aldosterone receptors [1]; 2 to 4 hours): 8.5 mmol
- Urinary Potassium Excretion (aldosterone receptors [1]; 4 to 6 hours): 10.2 mmol
- Urinary Sodium Excretion (aldosterone receptors [1]; 4 to 6 hours): 9.4 mmol
- Urinary Potassium Excretion (aldosterone receptors [1]; 6 to 8 hours): 13.3 mmol
- Urinary Sodium Excretion (aldosterone receptors [1]; 6 to 8 hours): 14.8 mmol
- Urinary Potassium Excretion (aldosterone receptors [1]; 8 to 10 hours): 17.9 mmol
- Urinary Sodium Excretion (aldosterone receptors [1]; 8 to 10 hours): 13.4 mmol
- Urinary Potassium Excretion (aldosterone receptors [1]; 10 to 12 hours): 12.5 mmol
- Urinary Sodium Excretion (aldosterone receptors [1]; 10 to 12 hours): 8.4 mmol
- Urinary Potassium Excretion (aldosterone receptors [1]; 12 to 14 hours): 20.6 mmol
- Urinary Sodium Excretion (aldosterone receptors [1]; 12 to 14 hours): 11.5 mmol
- Urinary Potassium Excretion (aldosterone receptors [1]; 14 to 16 hours): 11.4 mmol
- Urinary Sodium Excretion (aldosterone receptors [1]; 14 to 16 hours): 5.9 mmol
- Urinary Potassium Excretion (aldosterone receptors [1]; 16 to 24 hours): 27.9 mmol
- Urinary Sodium Excretion (aldosterone receptors [1]; 16 to 24 hours): 11.8 mmol
- Urinary Potassium Excretion (aldosterone receptors [1]; −9 to 0 hours): 26.9 mmol
- Urinary Sodium Excretion (aldosterone receptors [1]; −9 to 0 hours): 29.1 mmol
- 24 hour mean ΔDBP (blood pressure): −8.9 mmHg
- 24 hour mean ΔSBP (blood pressure): −15.7 mmHg
- Primary Efficacy Variable: ΔDBP at trough (sitting) (blood pressure): −9.5 mmHg
- ΔSBP at trough (sitting) (blood pressure): −17.6 mmHg
- urinary log10 (sodium/potassium) values (aldosterone receptors [2]): no sustained increase
- Plasma Renin Active Mean Change From Baseline (renin and aldosterone; 50 mg BID): 13.3 mU/L
- Serum Aldosterone Mean Change From Baseline (renin and aldosterone; 50 mg BID): 19.2 ng/dL
- aldosterone compared to placebo (renin and aldosterone; eight weeks of dosing): increases
- total and active renin levels (renin and aldosterone; eight weeks of dosing): increases
- Plasma Concentration Of Spironolactone ([3]; 50 mg single oral dose, -0.25 h (predose)): 0 ng/mL
- concentration at 0.5 h ([3]; male, human, plasma, po, 50 mg): 10.5 ng/mL
- concentration at 1 h ([3]; male, human, plasma, po, 50 mg): 23.6 ng/mL
- concentration at 2 h ([3]; male, human, plasma, po, 50 mg): 14.4 ng/mL
- concentration at 3 h ([3]; male, human, plasma, po, 50 mg): 14.3 ng/mL
- concentration at 4 h ([3]; male, human, plasma, po, 50 mg): 4.8 ng/mL
- concentration at 6 h ([3]; male, human, plasma, po, 50 mg): 0 ng/mL
- concentration at 8 h ([3]; male, human, plasma, po, 50 mg): 0 ng/mL
- concentration at 12 h ([3]; male, human, plasma, po, 50 mg): 0 ng/mL
- concentration at 16 h ([3]; male, human, plasma, po, 50 mg): 0 ng/mL
- concentration at 24 h ([3]; male, human, plasma, po, 50 mg): 0 ng/mL
- concentration at 28 h ([3]; male, human, plasma, po, 50 mg): 0 ng/mL
- concentration at 32 h ([3]; male, human, plasma, po, 50 mg): 0 ng/mL
- concentration at 48 h ([3]; male, human, plasma, po, 50 mg): 0 ng/mL
- concentration at 72 h ([3]; male, human, plasma, po, 50 mg): 0 ng/mL
- concentration at 96 h ([3]; male, human, plasma, po, 50 mg): 0 ng/mL

Reference: patent US6410054B1, “Immediate release eplerenone compositions” (G. D. Searle & Co., priority 1998, dated 2002)
